# From patent US20130338155A1, “METHOD FOR TREATING INFECTIONS” (SYNTA PHARMACEUTICALS CORP., priority 2006, published 2013)
# How the values were obtained:
# Her2 = assay: Degradation of Her2 in BT-474 cells (Method 1, Western blot); assay type: cell-based, Human; conditions: overnight, FIG. 2
# Protocol: Human high-Her2 breast carcinoma BT474 (HTB-20), SK-BR-3 (HTB-30) and MCF-7 breast carcinoma (HTB-22) from American Type Culture Collection, Va., USA were grown in Dulbecco's modified Eagle's medium with 4 mM L-glutamine and antibiotics (100 IU/ml penicillin and 100 ug/ml streptomycine; GibcoBRL). To obtain exponential cell growth, cells were trypsinized, counted and seeded at a cell density of 0.5×10^6 cells/ml regularly, every 3 days. All experiments were performed on day 1 after cell passage.
# BT-474 cells were treated with 0.5 μM, 2 μM, or 5 μM of 17AAG (a positive control) or 0.5 μM, 2 μM, or 5 μM of Compound 108 or Compound 49 overnight in DMEM medium. After treatment, each cytoplasmic sample was prepared from 1×10^6 cells by incubation of cell lysis buffer (#9803, cell Signaling Technology) on ice for 10 minutes. The resulting supernatant used as the cytosol fractions were dissolved with sample buffer for SDS-PAGE and run on a SDS-PAGE gel, blotted onto a nitrocellulose membrane by using semi-dry transfer. Non-specific binding to nitrocellulose was blocked with 5% skim milk in TBS with 0.5% Tween at room temperature for 1 hour, then probed with anti-Her2/ErB2 mAb (rabbit IgG, #2242, Cell Signaling) and anti-Tubulin (T9026, Sigma) as, housekeeping control protein. HRP-conjugated goat anti-rabbit IgG (H+L) and HRP-conjugated horse anti-mouse IgG (H+L) were used as secondary Ab (#7074, #7076, Cell Signaling) and LumiGLO reagent, 20× Peroxide (#7003, Cell Signaling) was used for visualization.
# Hsp90 protein = assay: Malachite Green Assay of ATPase activity of Hsp90 protein; assay type: biochemical; conditions: 37° C. for 4 hours, FIG. 1
# Protocol: Hsp90 protein was obtained from Stressgen (Cat#SPP-770). Assay buffer: 100 mM Tris-HCl, Ph7.4, 20 mM KCl, 6 mM MgCl2. […] Malachite green reagent was added to the reaction. […] The plate was read by an ELISA reader with an absorbance at 620 nm.
structure (smiles),measurement,setting,value
"CCc1cc(-c2nnc(S)n2-c2cccc3ccccc23)c(O)cc1O [Compound 49, 3-(2,4-Dihydroxy-5-ethyl-phenyl)-4-(naphthalen-1-yl)-5-mercapto-triazole]",degradation of Her2,Her2; 0.5 μM,partial degradated
same,degradation of Her2,Her2; 2 μM,complete degradation
same,degradation of Her2,Her2; 5 μM,complete degradation
"Oc1ccc(-c2nnc(S)n2-c2cccc3ccccc23)c(O)c1 [Compound 108, 3-(2,4-Dihydroxy-phenyl)-4-(naphthalen-1-yl)-5-mercapto-triazole]",inhibition of ATPase activity of Hsp90,Hsp90 protein; 4 μM,significant inhibition
same,inhibition of ATPase activity of Hsp90,Hsp90 protein; 40 μM,even greater inhibition of ATPase activity of Hsp90 than geldanamycin
same,degradation of Her2,Her2; 0.5 μM,partially degradated
same,degradation of Her2,Her2; 2 μM,partially degradated
same,degradation of Her2,Her2; 5 μM,almost completely degraded
